Experimental data as given in US8017391B2, “Human liver cancer cell line” (Univesity of Florida Research Foundation, Inc., priority 2006, dated 2011).

Tested on: LH86 cells or Huh7.5 cells
Assay: Tumor growth of implanted HCV susceptible cell lines in immune deficient mice
Format: in vivo
Details: injection of human EGF to NOD-SCID mice bearing subcutaneous tumor cells
Method: To establish a mouse model that is capable of supporting the whole viral life cycle, the present inventors implanted HCV susceptible cell lines (LH86 cells of the present invention or Huh7.5 cells) to immune deficient mice (NOD-SCID). When 1×10^6 cells were injected subcutaneously into the mice, visible tumor (0.5 cm) formed in one week, and the tumor continued to grow to 5 cm in size in 6 weeks. For LH86 cells, 5×10^6 tumor cells must be injected to achieve a similar tumor growth pattern.

“human EGF: human EGF injected to mice (NSDSECPLSHDGYCLHDGVCMYIEALDKYACNCVVGYIGERCQYRDLKWWELR; UniProt P01133 971-1023, looked up)” was tested, and the tumor growth rate was “significantly accelerate”.
